Laboratory results: ChEMBL document CHEMBL1201862, “PubChem BioAssay data set” (2004)
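A five-concentration, 48-hour dose response in 96-well plates underlies each endpoint, interpolated linearly between surrounding concentrations. GI50 marks 50% less growth.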 Active and inactive are the calls of the source. Rule as the data show it: active = GI50 up to about 1.1 µM and inactive = higher.

Key:
Experiment in all cases: NCI tumour cell line growth inhibition, 48 h
SNB-75 = tested on: SNB-75
A549 = tested on: A549
SF-539 = tested on: SF-539
PC-3 = tested on: PC-3
MDA-N = tested on: MDA-N
M19-MEL = tested on: M19-MEL
UO-31 = tested on: UO-31
A498 = tested on: A498
RPMI-8226 = tested on: RPMI-8226
MDA-MB-231 = tested on: MDA-MB-231
Hs-578T = tested on: Hs-578T
K562 = tested on: K562
HOP-18 = tested on: HOP-18
TK-10 = tested on: TK-10
NCI-H23 = tested on: NCI-H23
KM12 = tested on: KM12
UACC-257 = tested on: UACC-257
MDA-MB-435 = tested on: MDA-MB-435
U-251 = tested on: U-251
DU-145 = tested on: DU-145
HOP-62 = tested on: HOP-62
SK-MEL-28 = tested on: SK-MEL-28
MCF7 = tested on: MCF7
HOP-92 = tested on: HOP-92
NCI/ADR-RES = tested on: NCI/ADR-RES
SK-MEL-5 = tested on: SK-MEL-5
OVCAR-8 = tested on: OVCAR-8
NCI-H460 = tested on: NCI-H460
SK-OV-3 = tested on: SK-OV-3
SF-268 = tested on: SF-268
HCT-116 = tested on: HCT-116
ACHN = tested on: ACHN
SNB-78 = tested on: SNB-78
HL-60 = tested on: HL-60
Malme-3M = tested on: Malme-3M
OVCAR-4 = tested on: OVCAR-4
IGROV-1 = tested on: IGROV-1
LOX IMVI = tested on: LOX IMVI
RXF 393 = tested on: RXF 393
DMS-114 = tested on: DMS-114
EKVX = tested on: EKVX
OVCAR-5 = tested on: OVCAR-5
XF498 = tested on: XF498
DMS-273 = tested on: DMS-273
M14 = tested on: M14
HCT-15 = tested on: HCT-15
SW-620 = tested on: SW-620
MOLT-4 = tested on: MOLT-4
NCI-H226 = tested on: NCI-H226
SK-MEL-2 = tested on: SK-MEL-2
KM-20L2 = tested on: KM-20L2
SNB-19 = tested on: SNB-19
SR = tested on: SR
CCRF-CEM = tested on: CCRF-CEM
COLO 205 = tested on: COLO 205
T47D = tested on: T47D
CAKI-1 = tested on: CAKI-1
HT-29 = tested on: HT-29
DLD-1 = tested on: DLD-1
HCC 2998 = tested on: HCC 2998
BT-549 = tested on: BT-549
NCI-H522 = tested on: NCI-H522
SF-295 = tested on: SF-295
OVCAR-3 = tested on: OVCAR-3
SN12C = tested on: SN12C

SMILES: COc1cccc2c1C(=O)c1c(O)c3c(c(O)c1C2=O)C[C@@](O)(C(=O)CO)C[C@@H]3OC1CC(N2CCOCC2)C(O)C(C)O1 (stereo not given in full)
- GI50 (SNB-75): 2.5 nM (active)
- GI50 (A549): 6.28 nM (active)
- GI50 (SF-539): 2.5 nM (active)
- GI50 (PC-3): 33 nM (active)
- GI50 (MDA-N): 32.8 nM (active)
- GI50 (M19-MEL): 5.52 nM (active)
- GI50 (UO-31): 2.5 nM (active)
- GI50 (A498): 3.15 nM (active)
- GI50 (RPMI-8226): 2.5 nM (active)
- GI50 (MDA-MB-231): 55.1 nM (active)
- GI50 (Hs-578T): 24.9 nM (active)
- GI50 (K562): 2.5 nM (active)
- GI50 (HOP-18): 3.4 nM (active)
- GI50 (TK-10): 48.5 nM (active)
- GI50 (NCI-H23): 5.67 nM (active)
- GI50 (KM12): 24.6 nM (active)
- GI50 (UACC-257): 2.67 nM (active)
- GI50 (MDA-MB-435): 47.8 nM (active)
- GI50 (U-251): 2.5 nM (active)
- GI50 (DU-145): 49.7 nM (active)
- GI50 (HOP-62): 19.9 nM (active)
- GI50 (SK-MEL-28): 2.7 nM (active)
- GI50 (MCF7): 2.5 nM (active)
- GI50 (HOP-92): 9.75 nM (active)
- GI50 (NCI/ADR-RES): 2.52 nM (active)
- GI50 (SK-MEL-5): 2.5 nM (active)
- GI50 (OVCAR-8): 2.5 nM (active)
- GI50 (NCI-H460): 2.5 nM (active)
- GI50 (SK-OV-3): 2.92 nM (active)
- GI50 (SF-268): 23.9 nM (active)
- GI50 (HCT-116): 2.5 nM (active)
- GI50 (ACHN): 5.13 nM (active)
- GI50 (SNB-78): 2.5 nM (active)
- GI50 (HL-60): 2.5 nM (active)
- GI50 (Malme-3M): 2.59 nM (active)
- GI50 (OVCAR-4): 20.1 nM (active)
- GI50 (IGROV-1): 13.1 nM (active)
- GI50 (LOX IMVI): 2.5 nM (active)
- GI50 (RXF 393): 3.96 nM (active)
- GI50 (DMS-114): 2.5 nM (active)
- GI50 (EKVX): 15.9 nM (active)
- GI50 (OVCAR-5): 2.75 nM (active)
- GI50 (XF498): 2.5 nM (active)
- GI50 (DMS-273): 4.09 nM (active)
- GI50 (M14): 32.4 nM (active)
- GI50 (HCT-15): 3.15 nM
- GI50 (SW-620): 7.91 nM (active)
- GI50 (MOLT-4): 3.33 nM (active)
- GI50 (NCI-H226): 5.62 nM (active)
- GI50 (SK-MEL-2): 2.5 nM (active)
- GI50 (KM-20L2): 2.5 nM (active)
- GI50 (SNB-19): 2.5 nM (active)
- GI50 (SR): 4.66 nM (active)
- GI50 (CCRF-CEM): 3.23 nM (active)
- GI50 (COLO 205): 3.25 nM (active)
- GI50 (T47D): 57.4 nM (active)
- GI50 (CAKI-1): 9.48 nM (active)
- GI50 (HT-29): 6.28 nM (active)
- GI50 (DLD-1): 2.77 nM (active)
- GI50 (HCC 2998): 12.7 nM (active)
- GI50 (BT-549): 52.5 nM (active)
- GI50 (NCI-H522): 2.5 nM (active)
- GI50 (SF-295): 2.5 nM (active)
- GI50 (OVCAR-3): 2.5 nM (active)
- GI50 (SN12C): 15.6 nM (active)
